According to patent US8575156B2, “Cyclic inhibitors of 11β-hydroxysteroid dehydrogenase 1” (Vitae Pharmaceuticals, Inc., priority 2007, dated 2013):

Target: 11β-HSD1 (Homo sapiens, UniProt P28845)
Assay: biochemical
Settings: for IC50: IC50 Range, Biological Test Example 1, microsomes from CHO cells overexpressing human 11β-HSD1; for inhibition at 0.1111 µM: read-out: Average % inhibition at 111.1 nM, Biological Test Example 1, 111.1 nM compound

Chain of 11β-HSD1 (P28845 whole entry): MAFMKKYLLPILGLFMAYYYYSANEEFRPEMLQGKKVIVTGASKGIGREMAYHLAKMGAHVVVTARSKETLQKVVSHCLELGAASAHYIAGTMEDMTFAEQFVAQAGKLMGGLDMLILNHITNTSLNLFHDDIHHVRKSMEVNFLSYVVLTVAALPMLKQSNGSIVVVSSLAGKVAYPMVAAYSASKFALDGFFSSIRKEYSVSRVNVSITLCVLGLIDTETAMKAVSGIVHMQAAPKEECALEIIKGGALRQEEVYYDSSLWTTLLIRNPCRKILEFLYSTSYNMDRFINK

SMILES | IC50 [nM] | inhibition at 0.1111 µM [%]
CSc1ccc(C2(C)CCN([C@@H](C)c3ccccc3)C(=O)O2)cc1 (stereo partly drawn) [EXAMPLE 90, 6-methyl-6-(4-(methylthio)phenyl)-3-((S)-1-phenylethyl)-1,3-oxazinan-2-one] | < 100 | 83.1
CCOC(=O)COc1cccc([C@H](C)N2CCC(C)(c3ccccc3)OC2=O)c1 (stereo partly drawn) [EXAMPLE 91, ethyl 2-(3-((1S)-1-(6-methyl-2-oxo-6-phenyl-1,3-oxazinan-3-yl)ethyl)phenoxy)acetate] | 100 to 1000 | 39.8
C[C@@H](c1ccccc1)N1CCC(C)(c2ccc(CN3CCOCC3)cc2)OC1=O (stereo partly drawn) [EXAMPLE 92, 6-methyl-6-(4-(morpholinomethyl)phenyl)-3-((S)-1-phenylethyl)-1,3-oxazinan-2-one] | 100 to 1000 | 35
O=C1OC(CCO)(c2ccccc2)CCN1c1ccc(F)c(-c2ccc(F)cc2)c1 (stereo not shown) [EXAMPLE 96, 3-(4′,6-difluorobiphenyl-3-yl)-6-(2-hydroxyethyl)-6-phenyl-1,3-oxazinan-2-one] | < 100 | 91.9
CC(=O)NCCC1(c2ccccc2)CCN(c2cccc(-c3ccc(F)cc3F)c2)C(=O)O1 (stereo not shown) [EXAMPLE 98, N-(2-(3-(2′,4′-difluorobiphenyl-3-yl)-2-oxo-6-phenyl-1,3-oxazinan-6-yl)ethyl)acetamide] | < 100 | 73.4
CS(=O)(=O)NCCC1(c2ccccc2)CCN(c2cccc(-c3ccc(F)cc3F)c2)C(=O)O1 (stereo not shown) [EXAMPLE 99, N-(2-(3-(2′,4′-difluorobiphenyl-3-yl)-2-oxo-6-phenyl-1,3-oxazinan-6-yl)ethyl)methanesulfonamide] | < 100 | 75.3
O=C1OC(CCO)(c2ccccc2)CCN1c1ccc(F)c(-c2ccc(F)cc2Cl)c1 (stereo not shown) [EXAMPLE 101, 3-(2′-chloro-4′,6-difluorobiphenyl-3-yl)-6-(2-hydroxyethyl)-6-phenyl-1,3-oxazinan-2-one] | < 100 | 84.4
O=C1OC(CCO)(c2ccc(F)cc2)CCN1c1cccc(-c2ccc(F)cc2)n1 (stereo not shown) [EXAMPLE 103, 6-(4-fluorophenyl)-3-(6-(4-fluorophenyl)pyridin-2-yl)-6-(2-hydroxyethyl)-1,3-oxazinan-2-one] | < 100 | 86.9
O=C1OC(CCO)(c2ccccc2F)CCN1c1cccc(-c2ccc(F)cc2)n1 (stereo not shown) [EXAMPLE 104, 6-(2-fluorophenyl)-3-(6-(4-fluorophenyl)pyridin-2-yl)-6-(2-hydroxyethyl)-1,3-oxazinan-2-one] | < 100 | 85.7

Continued, values first:

IC50 [nM] | inhibition at 0.1111 µM [%] | SMILES
< 100 | 97.1 | Cc1ccc(C2(C)CCN([C@@H](C)c3ccccc3)C(=O)O2)cc1 (stereo partly drawn) [EXAMPLE 88, 6-methyl-3-((S)-1-phenylethyl)-6-p-tolyl-1,3-oxazinan-2-one]
< 100 | 71.4 | C[C@@H](c1cccc(O)c1)N1CCC(C)(c2ccccc2)OC1=O (stereo partly drawn) [EXAMPLE 89, 3-((S)-1-(3-hydroxyphenyl)ethyl)-6-methyl-6-phenyl-1,3-oxazinan-2-one]
< 100 | 97.3 | C=CCC1(c2ccc(F)cc2)CCN([C@@H](C)c2ccccc2)C(=O)O1 (stereo partly drawn) [EXAMPLE 95, 6-allyl-6-(4-fluorophenyl)-3-((S)-1-phenylethyl)-1,3-oxazinan-2-one]
< 100 | 93.7 | O=C1OC(CCO)(c2ccc(F)cc2)CCN1c1ccc(F)c(-c2ccc(F)cc2Cl)c1 (stereo not shown) [EXAMPLE 100, 3-(2′-chloro-4′,6-difluorobiphenyl-3-yl)-6-(4-fluorophenyl)-6-(2-hydroxyethyl)-1,3-oxazinan-2-one]
< 100 | 87.4 | O=C1OC(CCO)(c2ccc(F)cc2)CCN1c1ccc(F)c(-c2ccc(F)cc2F)c1 (stereo not shown) [EXAMPLE 105, 6-(4-fluorophenyl)-6-(2-hydroxyethyl)-3-(2′,4′,6-trifluorobiphenyl-3-yl)-1,3-oxazinan-2-one]
